ChEMBL document CHEMBL3871263, “Arylthiosemicarbazones as antileishmanial agents” (Eur J Med Chem, 2016)

Experiments:
[1] = Cytotoxicity against human MRC5 cells assessed as reduction in cell growth measured after 72 hrs by MTT assay; format: toxicity, cell-based
[2] = Cytotoxicity against human THP1 cells assessed as reduction in cell growth measured after 72 hrs by MTT assay; format: toxicity, cell-based, THP-1
Leishmania donovani = experiment: Antileishmanial activity against intracellular amastigote stage of Leishmania donovani MHOM/ET/67/HU3 infected in human THP1 cells assessed as parasite growth measured after 72 hrs by luciferase reporter gene assay; format: functional, cell-based; conditions: MHOM/ET/67/HU3, THP-1, 72 h
[3] = Selectivity index, ratio of EC50 for human MRC5 cells to EC50 for intracellular Leishmania donovani MHOM/ET/67/HU3 amastigotes; format: toxicity, cell-based; conditions: read-out: Ratio EC50

SMILES | EC50 at 72 h [1] [µM] | EC50 at 72 h [2] [µM] | EC50 (Leishmania donovani) [µM] | selectivity ratio [3]
Cn1cc(/C=N/NC(N)=S)c2ccccc21 | > 200 | > 200 | > 10 | 
Cn1ccc2cc(/C=N/NC(N)=S)ccc21 | > 200 | > 200 | > 10 | 
CN(C)c1ccc(/C=N/N=C(/N)S)c2ccccc12 | > 200 | > 200 | 6.5 | > 30
CCCCOc1ccc2cc(/C=N/NC(N)=S)ccc2c1 | 43 | 36 | 1.27 | 33.2
NC(=S)N/N=C/c1ccc(F)c2ccccc12 | > 200 | 39 | 0.8 | > 250
COCOc1c(/C=N/NC(N)=S)ccc2ccccc12 | 119 | 56 | 6.8 | 17.5
COCOc1ccc2cc(/C=N/NC(N)=S)ccc2c1 | 175 | > 200 | > 10 | 
NC(=S)N/N=C/c1cc2ccccc2c2ccccc12 | 192 | > 200 | > 10 | 
NC(=S)N/N=C/c1c(OCC2CCCCC2)ccc2ccccc12 | 33 | 28 | > 10 | 
CCOc1ccc(/C=N/NC(N)=S)c2ccccc12 | > 200 | > 200 | 7.2 | > 30
NC(=S)N/N=C/c1cn(CCCc2ccccc2)c2ccccc12 | > 200 | 30 | 4.1 | > 50
CCOc1ccc2cc(/C=N/NC(N)=S)ccc2c1 | > 200 | 30 | 5.4 | > 40
NC(=S)N/N=C/c1cn(CC2CCCCC2)c2ccccc12 | 26 | 27 | 9 | 2.8
NC(=S)N/N=C/c1ccc(OCC2CCCCC2)c2ccccc12 | 28.9 | 150 | 2.2 | 13.1
Cc1ccc(/C=N/NC(N)=S)c2ccccc12 | 37 | 32 | 1.2 | 30.4
NC(=S)N/N=C/c1ccc2ccccc2c1OCc1ccccc1 | 25 | 28 | 2.6 | 9.7
CCCCOc1c(/C=N/NC(N)=S)ccc2ccccc12 | 86 | > 200 | 1.4 | 61.5

SMILES | EC50 at 72 h [1] [µM] | EC50 at 72 h [2] [µM] | EC50 (Leishmania donovani) [µM] | selectivity ratio [3]
COc1ccc2cc(/C=N/NC(N)=S)ccc2c1 | > 250 | 108 | 9.3 | > 20
NC(=S)N/N=C/c1cn(Cc2ccccc2)c2ccccc12 | 175 | 28 | > 10 | 
COc1ccc2c(OC)ccc(/C=N/NC(N)=S)c2c1 | > 200 | > 200 | 9 | > 20
NC(=S)N/N=C/c1ccc(OCc2ccccc2)c2ccccc12 | 29 | 27 | 1.9 | 15.2
NC(=S)N/N=C/c1c2ccccc2cc2ccccc12 | 45 | 67 | 5.3 | 8.5
COCOc1ccc(/C=N/NC(N)=S)c2ccccc12 | 126 | > 200 | > 10 | 
NC(=S)N/N=C/c1ccc2cc(OCc3ccccc3)ccc2c1 | 27 | 28 | 1.2 | 22.6
COc1ccc(/C=N/NC(N)=S)c2ccccc12 | 42 | 47 | 5 | 8.4
NC(=S)N/N=C/c1c(OCc2ccccc2)ccc2ccccc12 | 30 | 39 | 8.1 | 3.7
Cc1cccc(Cn2cc(/C=N/NC(N)=S)c3ccccc32)c1 | 23 | 32 | 4.3 | 5.3
CCCCOc1ccc(/C=N/NC(N)=S)c2ccccc12 | 41 | > 200 | 2.1 | 19.5
NC(=S)N/N=C/c1ccc(-c2ccc(/C=N/NC(N)=S)cc2)cc1 | > 200 | > 200 | > 10 | 
CCCCn1cc(/C=N/NC(N)=S)c2cccc(C)c21 | 31 | > 200 | 9 | 3.4
Cn1c(/C=N/N=C(/N)S)cc2ccccc21 | > 200 | > 200 | > 10 | 
COc1ccc2ccccc2c1/C=N/N=C(/N)S | 126 | 109 | > 10 | 
C[C@@H]1[C@H](O)[C@@H](C)/C=C/C=C/C=C/C=C/C=C/C=C/C=C/[C@H](O[C@@H]2O[C@H](C)[C@@H](O)[C@H](N)[C@@H]2O)C[C@@H]2O[C@](O)(C[C@@H](O)C[C@@H](O)[C@H](O)CC[C@@H](O)C[C@@H](O)CC(=O)O[C@H]1C)C[C@H](O)[C@H]2C(=O)O [AMPHOTERICIN B] | 23 | 38 |  | 
